# Measurements from publication PMC7916272, “Colorimetric LPMO assay with direct implication for cellulolytic activity” (Biotechnology for Biofuels, 2021).
# Legend:
# Test in all cases: absorbance of PHP at […] nm
# Format in all cases: biochemical
# [1] = molecular target: T1, TfAA10A (Thermobifida fusca, UniProt Q47QG3); settings: 1 µM Cu-loaded enzyme, with or without DHA, 40 °C, 30 min
# T1 construct: gene Tfu_1268; expressed using LyGo platform, purified to homogeneity, loaded with CuCl2
# T1 sequence (Q47QG3 37-222): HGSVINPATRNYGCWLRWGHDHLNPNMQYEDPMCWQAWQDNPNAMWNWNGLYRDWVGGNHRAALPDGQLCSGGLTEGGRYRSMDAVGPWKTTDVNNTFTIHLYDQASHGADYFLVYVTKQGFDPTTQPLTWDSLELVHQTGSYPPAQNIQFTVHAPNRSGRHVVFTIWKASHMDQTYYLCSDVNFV
# [2] = molecular target: T2, CotA (Bacillus subtilis, UniProt H8WGE7); settings: […] enzyme, with or without DHA, […] °C, […] min
# T2 construct: recombinant from Escherichia coli, purified to homogeneity
# T2 sequence (H8WGE7 1-513): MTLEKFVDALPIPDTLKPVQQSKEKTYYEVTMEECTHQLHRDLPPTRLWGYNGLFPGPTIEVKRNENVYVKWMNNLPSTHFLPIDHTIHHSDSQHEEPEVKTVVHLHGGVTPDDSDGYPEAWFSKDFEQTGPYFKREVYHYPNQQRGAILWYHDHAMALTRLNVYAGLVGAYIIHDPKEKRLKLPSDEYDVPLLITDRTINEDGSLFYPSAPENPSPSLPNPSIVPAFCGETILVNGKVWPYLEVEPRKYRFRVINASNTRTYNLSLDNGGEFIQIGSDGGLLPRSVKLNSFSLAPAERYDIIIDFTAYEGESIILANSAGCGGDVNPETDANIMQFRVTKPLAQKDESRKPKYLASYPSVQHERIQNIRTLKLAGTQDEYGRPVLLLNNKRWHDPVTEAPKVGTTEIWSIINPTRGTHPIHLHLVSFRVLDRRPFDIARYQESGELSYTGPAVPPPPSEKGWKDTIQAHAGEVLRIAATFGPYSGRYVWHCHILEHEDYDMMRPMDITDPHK
# [3] = molecular target: T3, TtAA9 (Thermothielavioides terrestris, UniProt D0VWZ9); settings: 1 µM Cu-loaded enzyme, with or without DHA, 40 °C, 30 min
# T3 construct: gene gh61e; gift from Novozymes, purified to homogeneity, loaded with CuCl2
# T3 sequence (D0VWZ9 entry or part of it): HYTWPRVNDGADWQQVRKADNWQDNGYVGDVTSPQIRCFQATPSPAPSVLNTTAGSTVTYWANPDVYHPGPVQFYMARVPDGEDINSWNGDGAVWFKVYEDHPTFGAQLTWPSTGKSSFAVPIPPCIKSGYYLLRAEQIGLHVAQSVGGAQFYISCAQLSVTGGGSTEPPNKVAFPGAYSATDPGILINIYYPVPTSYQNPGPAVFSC
# [4] = molecular target: T4, SmAA10 (Serratia marcescens, UniProt P9WEM3); settings: 1 µM Cu-loaded enzyme, with or without DHA, 40 °C, 30 min
# T4 construct: gene CBP21; expressed using LyGo platform, purified to homogeneity, loaded with CuCl2
# T4 sequence (P9WEM3 28-197): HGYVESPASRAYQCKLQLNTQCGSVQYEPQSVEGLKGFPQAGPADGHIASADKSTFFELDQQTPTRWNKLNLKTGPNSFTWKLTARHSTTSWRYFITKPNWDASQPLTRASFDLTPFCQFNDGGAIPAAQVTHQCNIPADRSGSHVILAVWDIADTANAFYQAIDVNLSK
# [5] = molecular target: T5, AnAA13 (Aspergillus nidulans, UniProt Q5B1W7); settings: 1 µM Cu-loaded enzyme, with or without DHA, 40 °C, 30 min
# T5 construct: gene aasA; gift from Novozymes, purified to homogeneity, loaded with CuCl2
# T5 sequence (Q5B1W7 19-385): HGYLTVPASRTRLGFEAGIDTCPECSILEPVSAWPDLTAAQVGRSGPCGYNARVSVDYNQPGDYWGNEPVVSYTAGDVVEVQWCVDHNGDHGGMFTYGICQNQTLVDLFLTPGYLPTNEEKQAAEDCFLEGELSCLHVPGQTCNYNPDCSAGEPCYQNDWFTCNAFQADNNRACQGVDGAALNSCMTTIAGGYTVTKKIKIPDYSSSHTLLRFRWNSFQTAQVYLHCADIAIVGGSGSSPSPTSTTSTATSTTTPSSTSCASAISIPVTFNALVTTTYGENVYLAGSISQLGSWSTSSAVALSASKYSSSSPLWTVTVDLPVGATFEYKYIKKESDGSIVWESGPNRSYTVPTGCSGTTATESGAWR
# [6] = molecular target: T6, LsAA9A (Panus similis, UniProt A0A0S2GKZ1); settings: 1 µM Cu-loaded enzyme, with or without DHA, 40 °C, 30 min
# T6 construct: gene LPMO9A; gift from Novozymes, purified to homogeneity, loaded with CuCl2
# T6 sequence (A0A0S2GKZ1 20-254): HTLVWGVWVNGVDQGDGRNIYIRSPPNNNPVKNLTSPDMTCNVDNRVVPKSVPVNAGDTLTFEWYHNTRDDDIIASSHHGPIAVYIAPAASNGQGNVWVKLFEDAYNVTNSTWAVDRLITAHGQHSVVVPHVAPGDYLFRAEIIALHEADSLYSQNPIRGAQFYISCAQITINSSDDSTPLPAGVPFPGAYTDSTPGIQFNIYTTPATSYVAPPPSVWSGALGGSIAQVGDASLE
# [7] = molecular target: T7, MtL (Thermothelomyces thermophilus, UniProt G2QFD0); settings: 1 µM enzyme, with or without DHA, 40 °C, 30 min
# T7 construct: gene LMCO1; gift from Novozymes, purified to homogeneity
# T7 sequence (G2QFD0 21-650): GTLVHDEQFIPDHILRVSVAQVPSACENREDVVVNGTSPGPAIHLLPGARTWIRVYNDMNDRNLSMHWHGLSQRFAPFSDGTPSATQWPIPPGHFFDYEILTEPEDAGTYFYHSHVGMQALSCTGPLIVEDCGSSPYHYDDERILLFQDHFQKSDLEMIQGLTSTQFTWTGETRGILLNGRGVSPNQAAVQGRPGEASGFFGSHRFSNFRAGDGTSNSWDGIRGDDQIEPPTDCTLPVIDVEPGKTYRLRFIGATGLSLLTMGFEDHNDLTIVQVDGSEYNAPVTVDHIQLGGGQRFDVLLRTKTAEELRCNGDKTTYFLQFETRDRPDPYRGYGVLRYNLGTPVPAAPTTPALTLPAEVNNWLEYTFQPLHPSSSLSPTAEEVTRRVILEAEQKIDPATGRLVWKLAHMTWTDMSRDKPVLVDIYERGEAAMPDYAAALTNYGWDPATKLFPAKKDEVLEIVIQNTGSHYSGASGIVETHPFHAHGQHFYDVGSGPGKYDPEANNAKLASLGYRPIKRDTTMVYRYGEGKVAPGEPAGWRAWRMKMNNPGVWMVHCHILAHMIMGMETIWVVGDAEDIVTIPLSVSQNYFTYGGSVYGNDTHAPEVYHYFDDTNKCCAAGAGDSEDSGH
structure (smiles),measurement,setting,value
"O=C(O)c1ccccc1C(c1ccc(O)cc1)c1ccc(O)cc1 [rPHP, reduced phenolphthalein]",absorbance of PHP at 552 nm,[1],All LPMOs tested oxidise rPHP in a DHA dependent reaction
same,absorbance of PHP at 552 nm,[2],"did oxidise rPHP; however, the rPHP oxidising activity of these enzymes was not enhanced"
same,absorbance of PHP at 552 nm,[3],All LPMOs tested oxidise rPHP in a DHA dependent reaction
same,absorbance of PHP at 552 nm,[4],All LPMOs tested oxidise rPHP in a DHA dependent reaction
same,absorbance of PHP at 552 nm,[5],AnAA13 stands out with a relatively large rPHP oxidation without DHA
same,absorbance of PHP at 552 nm,[6],All LPMOs tested oxidise rPHP in a DHA dependent reaction
same,absorbance of PHP at 552 nm,[7],"did oxidise rPHP; however, the rPHP oxidising activity of these enzymes was not enhanced"
